Earlier results in US9890223B2, “Resin particles and process for producing same, antiglare film, light-diffusing resin composition, and external preparation” (SEKISUI PLASTICS CO., LTD., priority 2010, dated 2018).

Conditions: 20° C.

Going from `C=C(C)C(=O)OCC(C)C` [Isobutyl methacrylate] to `C=C(C)C(=O)OC` [Methyl methacrylate], the “Solubility in Water” value rises from 0.04 % by weight to 1.72 % by weight.

First: C=C(C)C(=O)OCCCC [n-butyl methacrylate]
Second: C=C(C)C(=O)OC(C)(C)C [tert-butyl methyacrylate]
The “Solubility in Water” value of the first is lower: 0.04 % by weight for the first, 0.05 % by weight for the second.

For `C=C(C)C(=O)OCCCCCCCCCCCC` [Lauryl methacrylate], the “Solubility in Water” value is given as 0.01 or less % by weight.
